The text below walks through data of US20130115286A1, “ORAL ADMINISTRATION FORMS FOR CONTROLLED RELEASE OF RIFAMPICIN FOR THE TREATMENT OF BACTERIAL INFECTIONS AND INFLAMMATORY DISEASES OF THE GASTROINTESTINAL TRACT” (priority 2010, published 2013).

The conditions of data set [1]: oral, 600 mg, healthy volunteers; cited from earlier work.
For data set [2] the following is noted: cited from earlier work.
The conditions of data set [3]: determined by the intestinal pH values; cited from earlier work.
Data set [4] can be described thus: Stability tests on rifampicin in acid, neutral and basic environments (FIG. 1). It is filed as physicochemical.
The conditions of data set [5]: in vivo, cited from earlier work.

With `CO[C@H]1/C=C/O[C@@]2(C)Oc3c(C)c(O)c4c(O)c(c(/C=N/N5CCN(C)CC5)c(O)c4c3C2=O)NC(=O)/C(C)=C\C=C\[C@H](C)[C@H](O)[C@@H](C)[C@@H](O)[C@@H](C)[C@H](OC(C)=O)[C@@H]1C` [rifampicin], in data set [1], the “maximum blood concentration (Cmax)” value was 9000 ng/mL. In addition, in data set [2], the pKa – broadly, the pH at which an ionisable group is half protonated – is 1.7. The “solubility in the intestine” value in data set [3] was 1000 to 6000 µg/mL. Further, the stability result is listed as “less stable” in data set [4] (acid environment); “sufficiently stable” in data set [4] (neutral and weakly alkaline environments). Besides, the “dose eliminated in the urine” value in data set [5] (po) was “approx. 20 % of the dose”. In data set [5], the “amount present in the plasma relative to that eliminated by the renal route” value was 5 times.
